The source of these data is patent US11286268B1, “EIF4E-inhibiting compounds and methods” (EFFECTOR THERAPEUTICS, INC., priority 2019, dated 2022).

In the assay the target is recombinant eIF4E (Homo sapiens (Human), UniProt P06730). Put plainly: Fluorescence polarization competition assay for eIF4E binding potency. The protocol:
Compounds were screened for eIF4E binding potency using a fluorescence polarization competition assay. All binding reactions were performed in fluorescence polarization buffer (FPB) containing 20 mM Tris pH 7.5, 100 mM NaCl, 1 mM DTT, and 0.02% Tween-20. Final binding reactions contained 75 nM recombinant eIF4E (Beryllium, custom order), 20 nM EDA-m^7GDP-ATTO-550 (Jena Bioscience, NU-827-550) and varying concentrations of the inhibitory compound of interest. Final DMSO concentration in each reaction was 1%.
eIF4E protein was pre-incubated with EDA-m^7GDP-ATTO-550 in FPB at 2× concentrations for 5 minutes prior to the addition of compounds. Compounds (100×) were prepared using 3-fold serial dilutions in 100% DMSO, and subsequently diluted 1:50 in FPB to produce 2× stocks. 50 μl of 2× eIF4E/EDA-m^7GDP-ATTO-550 were transferred to the wells of a 96-well half-area black flat bottom polystyrene plate. 50 μl of 2× test compound were added, and binding reactions were allowed to equilibrate for 30 minutes at room temperature while protected from light. The fluorescent polarization signal was detected using a Victor 2 multi-label counter (Perkin Elmer) and the concentration necessary to achieve inhibition of eIF4E/EDA-m^7GDP-ATTO-550 binding by 50% (IC50) was calculated using data from an 8-point compound dilution series.
In Table 4A, IC50 values of less than 0.05 μM are labelled as “+++”, from 1 to 0.05 μM are labelled as “++”, and greater than 1 μM are labelled as “+”. ND=not determined.

Where [1] appears, read: fluorescence polarization competition, 75 nM recombinant eIF4E, 20 nM EDA-m7GDP-ATTO-550, IC50 class, read-out: elF4E FP.
Setting [2] is: inhibition of eIF4E/EDA-m7GDP-ATTO-550 binding by 50%, Table 4B calculated values, read-out: IC50.
Where [3] appears, read: inhibition of eIF4E/EDA-m7GDP-ATTO-550 binding, calculated IC50 values, Table 4B, read-out: IC50.

Like-named read-outs stand apart in the source and are kept apart here. Bounds are passed on as bounds.

Sequence of recombinant eIF4E (P06730 whole entry): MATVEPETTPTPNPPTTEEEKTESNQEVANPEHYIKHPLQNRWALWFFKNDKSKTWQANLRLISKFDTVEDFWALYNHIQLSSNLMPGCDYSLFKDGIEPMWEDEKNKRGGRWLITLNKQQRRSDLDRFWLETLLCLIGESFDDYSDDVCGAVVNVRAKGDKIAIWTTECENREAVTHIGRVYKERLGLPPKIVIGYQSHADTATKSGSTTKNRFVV

For the compound `Cc1nc2cc(OC(F)(F)F)cc(C#N)c2c(=O)n1CCOc1ccc(Cl)cc1-c1ccnc2c(C(=O)O)csc12` [compound 456], the IC50 runs as follows: under setting [1], under 50 nM; under setting [2], 10.9 nM.

Consider `Cc1cc(-c2cc(Cl)ccc2OCCn2c(C)nc3cc(C(F)(F)F)c(-c4ccc(Cl)nc4)c(C#N)c3c2=O)c2scc(C(=O)O)c2n1` [compound 1059], for which the IC50 under setting [1] was under 50 nM and the IC50 under setting [2] was 11.1 nM.

With `COC(=O)c1csc2c(-c3cc(Cl)ccc3C#CCn3c(C)nc4cnc(N(C)C5CCN(CC(F)(F)F)CC5)c(C#N)c4c3=O)ccnc12` [compound 1195], the IC50 reads like this: under setting [1], under 50 nM; under setting [3], 13.1 nM.

With `Cc1nc2c(C#N)nc(C#N)cc2c(=O)n1CCOc1ccc(Cl)cc1-c1cccc(C(=O)O)c1` [compound 1997], under setting [3], the IC50 was 77.5 nM.

Regarding `Cc1cc(-c2cc(Cl)ccc2OCCn2c(C)nc3cc(C(F)(F)F)c(CN(C)C)c(C#N)c3c2=O)c2sc(C)c(C(=O)O)c2n1` [compound 670], the IC50 by setting is: under setting [1], under 50 nM; under setting [2], 18 nM.

Regarding `Cc1nc2c(F)cc(S(=O)(=O)N(C)C)c(C#N)c2c(=O)n1CCOc1ccc(Cl)cc1-c1ccnc2c(C(=O)O)csc12` [compound 288], the IC50 is under 50 nM under setting [1] and 46.1 nM under setting [2].

In the case of `COCC(F)(F)CN1CCC(N(C)c2ncc3nc(C)n(CC#Cc4ccc(Cl)cc4-c4ccnc5c(C(=O)O)csc45)c(=O)c3c2C#N)CC1` [compound 1133], the IC50 under setting [1] is under 50 nM and the IC50 under setting [2] is 17 nM.

Turning to `CCN(Cc1ccccc1)S(=O)(=O)c1ccc2nc(C)n(CCOc3ccc(Cl)cc3-c3ccnc4c(C(=O)O)csc34)c(=O)c2c1C#N` [compound 253], the IC50 was under 50 nM under setting [1] and 46 nM under setting [2].

With `CCc1ccc(-c2c(C(F)(F)F)cc3nc(C)n(CCOc4ccc(Cl)cc4-c4cc(C)nc5c(C(=O)O)csc45)c(=O)c3c2C#N)cn1` [compound 774], the IC50 was under 50 nM under setting [1] and 8.29 nM under setting [2].

On to `Cc1nc2cnc(C3=CCN(C)CC3)c(C#N)c2c(=O)n1CCOc1ccc(Cl)cc1-c1ccnc2c(C(=O)O)csc12` [compound 888], for which the IC50 runs as follows: under setting [1], under 50 nM; under setting [2], 40.2 nM.

For `Cc1nc2cnc(NC3CCCCC3)cc2c(=O)n1CCOc1ccc(Cl)cc1-c1cccc(C(=O)O)c1` [compound 2003], the IC50 under setting [3] was 264 nM.

Take `Cc1cc(-c2c(C(F)(F)F)cc3nc(C)n(CCOc4ccc(Cl)cc4-c4cc(C)nc5c(C(=O)O)csc45)c(=O)c3c2C#N)cnn1` [compound 442]: the IC50 reads like this: under setting [1], under 50 nM; under setting [2], 17.7 nM.

For the compound `Cc1nc2cc(C(F)(F)F)cc(C#N)c2c(=O)n1CCOc1ccc(Cl)cc1-c1cccc2c1S(=O)(=O)C=C2C(=O)O` [compound 327], the IC50 by setting is: under setting [1], under 50 nM; under setting [2], 43.7 nM.

`Cc1nc2cnc(N3CCN(C)C4CC43)c(C#N)c2c(=O)n1CCOc1ccc(Cl)cc1-c1cccc2c(C(=O)O)csc12` (stereo not shown) [compound 2020]: the IC50 under setting [3] was 33 nM.

On to `Cc1cc(-c2cc(Cl)ccc2OCCn2c(C)nc3cc(Cl)c(N(C)C(C)(C)C)c(C#N)c3c2=O)c2scc(C(=O)O)c2n1` [compound 955], for which the IC50 reads like this: under setting [1], under 50 nM; under setting [2], 10.2 nM.

Take `C#Cc1c(C(=O)O)cccc1-c1cc(Cl)ccc1OCCn1c(CF)nc2cc(C#N)cc(C#N)c2c1=O` [compound 232]: the IC50 is, setting by setting: under setting [1], under 50 nM; under setting [2], 16.3 nM.

`Cc1cc(-c2cc(Cl)ccc2OCCn2c(C)nc3cc(C(F)(F)F)c(N4CCN(C)C(C(F)(F)F)C4)c(C#N)c3c2=O)c2sc(C)c(C(=O)O)c2n1` (stereo not shown) [compound 1207]: the IC50 is 50 to 1000 nM under setting [1] and 121 nM under setting [3].

Consider `Cc1ncc(C#N)c2c(=O)n(CCOc3ccc(Cl)cc3-c3ccc(Cl)c4c(C(=O)O)csc34)c(C)nc12` [compound 723], for which the IC50 was under 50 nM under setting [1] and 28.7 nM under setting [2].

Regarding `Cc1ccc(N(C)c2c(Cl)cc3nc(C)n(CCOc4ccc(Cl)cc4-c4cc(C)nc5c(C(=O)O)csc45)c(=O)c3c2C#N)cn1` [compound 959], the IC50 reads like this: under setting [1], under 50 nM; under setting [2], 14.8 nM.

In the case of `Cc1cc(-c2cc(Cl)ccc2OCCn2c(C)nc3cnc(Cl)c(C#N)c3c2=O)c2scc(C(=O)O)c2n1` [compound 792], the IC50 is, setting by setting: under setting [1], under 50 nM; under setting [2], 2.44 nM.

With `Cc1nc2cc(CN(C)C)c(F)c(C#N)c2c(=O)n1CCOc1ccc(Cl)cc1-c1ccnc2c(C(=O)O)csc12` [compound 517], the IC50 is under 50 nM under setting [1] and 35.7 nM under setting [2].

Take `COC(=O)c1csc2c(-c3cc(Cl)ccc3C#CCn3c(C)nc4cnc(N5CCN(CCOC(F)(F)F)CC5)c(C#N)c4c3=O)ccnc12` [compound 1405]: the IC50 under setting [3] is 631 nM.

Turning to `Cc1nc2cc(Cl)c(Cl)c(C#N)c2c(=O)n1CCOc1ccc(C#N)cc1-c1ccnc2c(C(=O)O)csc12` [compound 290], the IC50 is, setting by setting: under setting [1], under 50 nM; under setting [2], 42.7 nM.

`N#Cc1cccc2nc(C(F)F)n(CCOc3ccc(Cl)cc3-c3ccc(C(=O)O)c4ccsc34)c(=O)c12` [compound 191]: the IC50 under setting [1] lay within 50 to 1000 nM and the IC50 under setting [2] is 144 nM.

Regarding `Cc1nc2cc(C(F)(F)F)c(N3CCNCC3)c(C#N)c2c(=O)n1CCOc1ccc(Cl)cc1-c1ccnc2ccsc12` [compound 855], the IC50 by setting is: under setting [1], under 50 nM; under setting [2], 4.77 nM.

Turning to `Cc1nc2cnc(N(C)[C@@H]3CC[C@@H](N(C)CC(F)F)C3)c(C#N)c2c(=O)n1CC#Cc1ccc(Cl)cc1-c1ccnc2c(C(=O)O)csc12` [compound 1581], under setting [3], the IC50 was 14.3 nM.

On to `Cc1nc2cnc(N(C)[C@H]3[C@@H]4CN(CC(F)F)C[C@@H]43)c(C#N)c2c(=O)n1CC#Cc1ccc(Cl)cc1-c1ccnc2c(C(=O)O)csc12` [compound 1403], for which the IC50 under setting [3] was 8.76 nM.

Consider `Cc1cc(-c2cc(Cl)ccc2OCCn2c(C)nc3cnc(N)c(C#N)c3c2=O)c2scc(C(=O)O)c2n1` [compound 1072], for which the IC50 by setting is: under setting [1], under 50 nM; under setting [2], 37.2 nM.

As for `Cc1cc(-c2cc(Cl)ccc2OCCn2c(C)nc3cc(C(F)F)c(CN4CCN(C)CC4)c(C#N)c3c2=O)c2scc(C(=O)O)c2n1` [compound 646], the IC50 is, setting by setting: under setting [1], under 50 nM; under setting [2], 41.4 nM.

For the compound `Cc1nc2cc(C(F)(F)F)c(N3CCC4(CC3)CN(CC(F)F)C4)c(C#N)c2c(=O)n1CCOc1ccc(Cl)cc1-c1ccnc2c(C(=O)NS(C)(=O)=O)csc12` [compound 1913], under setting [3], the IC50 is 22.9 nM.

As to `Cc1nc2cc(C(F)(F)F)cc(C#N)c2c(=O)n1CCOc1ccc(Cl)cc1-c1ccnc2c(C(=O)O)csc12` [compound 61], the IC50 runs as follows: under setting [1], under 50 nM; under setting [2], 26.5 nM.

With `Cc1nc2cnc(N(C)C3CCN(CC(C)(F)F)CC3)c(C(N)=O)c2c(=O)n1CC#Cc1ccc(Cl)cc1-c1ccnc2c(C(=O)O)csc12` [compound 1961], the IC50 under setting [3] is 211 nM.

On to `Cc1nc2cncc(C#N)c2c(=O)n1CCOc1ccc(Cl)cc1-c1ccnc(C(=O)O)c1` [compound 35], for which the IC50 under setting [1] was under 50 nM and the IC50 under setting [2] is 44.3 nM.

`Cc1nc2cnc(C3(C)CCN(C)CC3)c(C#N)c2c(=O)n1CCOc1ccc(Cl)cc1-c1ccnc2c(C(=O)O)csc12` [compound 1415]: the IC50 under setting [3] was 16.8 nM.

For `Cc1nc2cnc(N(C)C3CCN(CC(C)(F)F)CC3)c(C#N)c2c(=O)n1CC#Cc1ccc(Cl)cc1-c1ccnc2c(C(=O)NS(=O)(=O)C3COC3)csc12` [compound 1183], the IC50 is, setting by setting: under setting [1], under 50 nM; under setting [2], 23.2 nM.

`Cc1ccc(-c2cc(Cl)ccc2OCCn2c(C)nc3c(N(C)C)ncc(C#N)c3c2=O)c2scc(C(=O)O)c12` [compound 725]: the IC50 runs as follows: under setting [1], under 50 nM; under setting [2], 38.2 nM.

For `Cc1cc(O)c(-c2c(C(F)(F)F)cc3nc(C)n(CCOc4ccc(Cl)cc4-c4cc(C)nc5c(C(=O)O)csc45)c(=O)c3c2C#N)cn1` [compound 1389], the IC50 under setting [3] was 1190 nM.

In the case of `Cc1nc2ccc(CCN(C)C)c(C#N)c2c(=O)n1CCOc1ccc(Cl)cc1-c1cc(OC(F)F)nc2c(C(=O)O)csc12` [compound 575], the IC50 under setting [1] was under 50 nM and the IC50 under setting [2] was 25.7 nM.

As for `Cc1nc2cc(CN(C)C)cc(C#N)c2c(=O)n1CCOc1ccc(Cl)cc1-c1ccnc2c(C(=O)O)csc12` [compound 512], the IC50 was 50 to 1000 nM under setting [1] and 71.8 nM under setting [2].

Take `Cc1nc2cnc(N3CCN(CC(C)(C)F)CC3)c(C#N)c2c(=O)n1CCOc1ccc(Cl)cc1-c1ccnc2c(C(=O)NS(C)(=O)=O)csc12` [compound 1516]: under setting [3], the IC50 was 17 nM.

As to `Cc1csc2c(-c3cc(Cl)ccc3OCCn3c(C)nc4cc(C(F)(F)F)c(N5CCN(C)CC5)c(C#N)c4c3=O)ccnc12` [compound 1249], the IC50 reads like this: under setting [1], 50 to 1000 nM; under setting [3], 75.9 nM.

On to `CCc1cc(-c2cc(Cl)ccc2OCCn2c(C)nc3cc(C(F)(F)F)cc(C#N)c3c2=O)c2scc(C(=O)O)c2n1` [compound 330], for which the IC50 is, setting by setting: under setting [1], under 50 nM; under setting [2], 47.7 nM.
